{"source": "paper PMC12173945", "about": "“Import mechanism of peroxisomal proteins with an N-terminal signal sequence” (Nature Cell Biology, 2025)", "key": {"[1]": {"system": "yeast PEX7", "test": "Bead-binding assay: peptide-conjugated beads, recruitment of PEX7–GFP or PTS2–GFP", "design": "species or system yeast (S. cerevisiae)", "conditions": "1 h; for Recruitment of PTS2–GFP to peptide-conjugated beads: 1 µM PEX7 and 1 µM receptor, 1 µM cargo; for Recruitment of PEX7–GFP to peptide-conjugated beads: peptide on thiol-reactive beads, fluorescence microscopy", "excerpt": "(§1) Cysteine-containing peptides were covalently conjugated to thiol-reactive SulfoLink coupling resin (Thermo Fisher, catalogue number 20401) according to the manufacturer’s instructions. The prepared beads were then mixed with Assay Buffer containing the fluorescently labelled protein as well as additional components indicated in the text, and the resulting bead suspensions were transferred to a 384-well glass-bottomed plate (Cellvis, P384-1.5H-N). GST-fusion proteins were instead mixed with glutathione agarose 4B (Prometheus, 20-543) in Assay Buffer containing the fluorescently labelled protein and additional components indicated in the text; the resulting bead suspensions were then transferred to a glass-bottomed plate as above. The plates were incubated at RT for the durations specified in the text and directly imaged on the spinning-disk confocal platform described earlier for peroxisomal import reactions in Xenopus egg extract. Note that imaging the beads directly in the binding reaction preserves the equilibrium and thereby allows even weak interactions to be detected. Fluorescence was collected through a Nikon ×10 0.45 NA Plan Apo air objective, and images were acquired using the Nikon NIS-Elements software and a 16-bit digitizer without binning. Imaging parameters were configured to maximize the SNR while avoiding saturation. Samples intended to be compared were imaged using identical acquisition settings."}, "[2]": {"system": "PEX7–receptor–cargo complex on PEX39-coated beads", "test": "Bead-binding assay: recruitment of PEX7–receptor–cargo complex to PEX39-coated beads (Fig. 7d, 8a)", "design": "species or system yeast (S. cerevisiae)", "conditions": "100 µM peptide, overnight, Fig. 8a", "excerpt": "as §1"}, "[3]": {"system": "yeast PEX7 bound to the ∆APH mutant of GST-tagged PEX39", "test": "Competitive binding: peptide displacement of PEX7 from GST-tagged ∆APH PEX39 beads (Fig. 8b)", "design": "species or system yeast (S. cerevisiae)", "conditions": "for Stripping of PEX7 off PEX39 lacking the APH: peptide competition, Fig. 8b", "procedure": "For the assay shown in Fig. 8b, the beads were first incubated with yeast PEX7 and the GST-tagged ∆APH variant of yeast PEX39 (each at 1 µM) for 30 min at 25 °C with agitation. Varying concentrations of the peptides, as indicated in the text, were then added and the reactions were incubated for a further 1 h under the same conditions. The beads were finally sedimented and the resulting supernatant fractions resolved by SDS–PAGE as above.\nTo calculate the fraction bound in the quantitative binding assay, digitized images of Coomassie-stained gels were first converted into 16-bit grayscale and their pixel intensities inverted. The mean pixel intensity was then measured within a rectangular selection encompassing each PEX7 protein band and the mean intensity of the background was subtracted from the measured values. The background-corrected intensities (corresponding to unbound PEX7 remaining in solution) were in turn subtracted from the intensity of the PEX7 band in a sample without PEX39 (that is, total PEX7). The resulting difference (corresponding to PEX7 that had bound to the beads) was finally divided by the total PEX7 intensity to yield the fraction bound. The data were fitted either to a standard binding isotherm or a competitive-binding isotherm, as appropriate, to estimate the observed binding constants."}, "[4]": {"system": "YG hydrogel (wild-type YG-domain polypeptide of PEX13)", "test": "YG hydrogel permeation assay, wild-type hydrogel (Fig. 2, Fig. 3g, Extended Data Fig. 9d)", "conditions": "PEX5-21 + PEX7", "procedure": "A solution of the purified wild-type YG-domain polypeptide (or the variant lacking the KPWE motif) was concentrated to 2 mM in 50 mM HEPES·NaOH pH 7.8 at RT, 2 M urea and 2 mM TCEP. Aliquots of 2 µl were then spotted on the bottom of multiple wells of a 96-well glass-bottomed plate (Cellvis, P96-1.5H-N), which was then sealed with a gas-impermeable AlumaSeal II film (Hampton Research, HR8-069) to prevent desiccation and incubated at RT for 24 h. Before each assay, the resulting gels were equilibrated overnight at RT in a 100-fold excess of Assay Buffer (25 mM HEPES·NaOH pH 7.8 at RT, 150 mM NaCl and 1 mM TCEP). A 0.5 µM solution of fluorescently labelled protein in Assay Buffer was then added to the samples, with or without additional components at the concentrations indicated in the text, and incubated at RT. Gels were imaged at the times indicated in the text using a Nikon A1R point-scanning confocal system consisting of an inverted Nikon Eclipse Ti microscope and a Nikon ×20 0.75 NA Plan Apo air objective. The objective was centred on the gel edge and focus was maintained 5 µm above the glass surface using the Nikon Perfect Focus System. Fluorescence was excited through a 405/488/561/647 quad-band dichroic (Chroma), using a 488-nm solid-state laser (Coherent) and a galvano scanner. A 50-nm emission band was collected on a gallium arsenide phosphide detector, using an ET525/50m (525 ± 25 nm) single-band bandpass filter (Chroma) and a pinhole dilated to 0.9 Airy units. Images were acquired using the Nikon NIS-Elements software with a pixel size of 1 µm and a 12-bit digitizer. Imaging parameters were configured to maximize the SNR while avoiding saturation. All samples intended to be compared were imaged using identical acquisition settings.\nFor the YG hydrogel permeation assay, images were first oriented such that each gel edge faced the same direction. Fluorescence profiles across the buffer–gel interface were then generated by centering a 60 × 300 µm rectangular area on the gel edge and then measuring the mean fluorescence at each position within this selection. To express the resulting values in terms of fold enrichment, the fluorescence at each position along the selection was normalized to the average fluorescence in the buffer and plotted in terms of the distance from the gel edge.\nTo calculate permeation rates through the YG hydrogel, a 60 × 300 µm rectangular area was first centred on the gel edge. The resulting region was then thresholded to demarcate the permeation zone (that is, the distance traversed by the fluorescent species) from the buffer and non-permeated part of the gel. The width of the area above the threshold was then measured and plotted as a function of time. A linear fit to the data yielded the permeation rate."}}, "data": [{"substance": "CSSTAVPEPRWKPTSASLEE [scrambled peptide, KPWE peptide with amino acids 8 and 10–13 rearranged]", "values": [{"measurement": "Recruitment of PTS2–GFP to peptide-conjugated beads", "setting": "[1]", "result": "No binding was seen"}, {"measurement": "Recruitment of PEX7–GFP to peptide-conjugated beads", "setting": "[1]", "result": "could not"}, {"measurement": "Effect of peptide on recruitment of the PEX7–receptor–cargo complex to PEX39-coated beads", "setting": "[2]", "result": "had no effect"}, {"measurement": "Fraction bound", "setting": "[3]; [Peptide] 10 µM, replicate 1", "result": 0.936}, {"measurement": "Fraction bound", "setting": "[3]; [Peptide] 10 µM, replicate 2", "result": 0.865}, {"measurement": "Fraction bound", "setting": "[3]; [Peptide] 10 µM, replicate 3", "result": 0.914}, {"measurement": "Fraction bound", "setting": "[3]; [Peptide] 30 µM, replicate 1", "result": 0.947}, {"measurement": "Fraction bound", "setting": "[3]; [Peptide] 30 µM, replicate 2", "result": 0.840}, {"measurement": "Fraction bound", "setting": "[3]; [Peptide] 30 µM, replicate 3", "result": 0.887}, {"measurement": "Fraction bound", "setting": "[3]; [Peptide] 100 µM, replicate 1", "result": 0.965}, {"measurement": "Fraction bound", "setting": "[3]; [Peptide] 100 µM, replicate 2", "result": 0.864}, {"measurement": "Fraction bound", "setting": "[3]; [Peptide] 100 µM, replicate 3", "result": 0.888}, {"measurement": "Fraction bound", "setting": "[3]; [Peptide] 300 µM, replicate 1", "result": 0.952}, {"measurement": "Fraction bound", "setting": "[3]; [Peptide] 300 µM, replicate 2", "result": 0.871}, {"measurement": "Fraction bound", "setting": "[3]; [Peptide] 300 µM, replicate 3", "result": 0.887}, {"measurement": "Fraction bound", "setting": "[3]; [Peptide] 1000 µM, replicate 1", "result": 0.902}, {"measurement": "Fraction bound", "setting": "[3]; [Peptide] 1000 µM, replicate 2", "result": 0.861}, {"measurement": "Fraction bound", "setting": "[3]; [Peptide] 1000 µM, replicate 3", "result": 0.848}, {"measurement": "Stripping of PEX7 off PEX39 lacking the APH", "setting": "[3]", "result": "could not"}]}, {"substance": "PTS1: mEGFP fused at the C terminus to an enhanced PTS1 import signal (GYKGLKSKL)", "values": [{"measurement": "Displacement", "setting": "[4]; 0 min, replicate 1", "result": 0.000, "unit": "µm"}, {"measurement": "Displacement", "setting": "[4]; 0 min, replicate 2", "result": 0.000, "unit": "µm"}, {"measurement": "Displacement", "setting": "[4]; 0 min, replicate 3", "result": 0.000, "unit": "µm"}, {"measurement": "Displacement", "setting": "[4]; 30 min, replicate 1", "result": 44.992, "unit": "µm"}, {"measurement": "Displacement", "setting": "[4]; 30 min, replicate 2", "result": 39.993, "unit": "µm"}, {"measurement": "Displacement", "setting": "[4]; 30 min, replicate 3", "result": 31.994, "unit": "µm"}, {"measurement": "Displacement", "setting": "[4]; 60 min, replicate 1", "result": 64.988, "unit": "µm"}, {"measurement": "Displacement", "setting": "[4]; 60 min, replicate 2", "result": 59.989, "unit": "µm"}, {"measurement": "Displacement", "setting": "[4]; 60 min, replicate 3", "result": 45.992, "unit": "µm"}]}, {"substance": "CSSTAVPRPKPWETSASLEE [KPWE peptide, residues 2–20 of S. cerevisiae PEX13 with an additional N-terminal cysteine]", "values": [{"measurement": "Recruitment of PTS2–GFP to peptide-conjugated beads", "setting": "[1]", "result": "could recruit PTS2–GFP only when PEX7 and the receptor were both present"}, {"measurement": "Recruitment of PEX7–GFP to peptide-conjugated beads", "setting": "[1]", "result": "could recruit yeast PEX7 fused at the C terminus to GFP"}, {"measurement": "Effect of peptide on recruitment of the PEX7–receptor–cargo complex to PEX39-coated beads", "setting": "[2]", "result": "no longer efficiently recruited to PEX39-coated beads"}, {"measurement": "Kobs (observed binding constant)", "setting": "[3]; PEX7 and GST-PEX39 ∆APH each 1 µM, peptide added 1 h, 25 °C, competitive-binding isotherm, mean ± s.e.m., three independent experiments, ND = binding not detectable", "result": "41 ± 1.2", "unit": "µM"}, {"measurement": "Fraction bound", "setting": "[3]; [Peptide] 10 µM, replicate 1", "result": 0.810}, {"measurement": "Fraction bound", "setting": "[3]; [Peptide] 10 µM, replicate 2", "result": 0.769}, {"measurement": "Fraction bound", "setting": "[3]; [Peptide] 10 µM, replicate 3", "result": 0.841}, {"measurement": "Fraction bound", "setting": "[3]; [Peptide] 30 µM, replicate 1", "result": 0.666}, {"measurement": "Fraction bound", "setting": "[3]; [Peptide] 30 µM, replicate 2", "result": 0.688}, {"measurement": "Fraction bound", "setting": "[3]; [Peptide] 30 µM, replicate 3", "result": 0.732}, {"measurement": "Fraction bound", "setting": "[3]; [Peptide] 100 µM, replicate 1", "result": 0.458}, {"measurement": "Fraction bound", "setting": "[3]; [Peptide] 100 µM, replicate 2", "result": 0.521}, {"measurement": "Fraction bound", "setting": "[3]; [Peptide] 100 µM, replicate 3", "result": 0.552}, {"measurement": "Fraction bound", "setting": "[3]; [Peptide] 300 µM, replicate 1", "result": 0.302}, {"measurement": "Fraction bound", "setting": "[3]; [Peptide] 300 µM, replicate 2", "result": 0.372}, {"measurement": "Fraction bound", "setting": "[3]; [Peptide] 300 µM, replicate 3", "result": 0.402}, {"measurement": "Fraction bound", "setting": "[3]; [Peptide] 1000 µM, replicate 1", "result": 0.141}, {"measurement": "Fraction bound", "setting": "[3]; [Peptide] 1000 µM, replicate 2", "result": 0.198}, {"measurement": "Fraction bound", "setting": "[3]; [Peptide] 1000 µM, replicate 3", "result": 0.200}, {"measurement": "Stripping of PEX7 off PEX39 lacking the APH", "setting": "[3]", "result": "could strip off PEX7 from PEX39 lacking the APH"}]}]}
